The record followed here is ChEMBL document CHEMBL5154803, “Spermine-Conjugated Short Proline-Rich Lipopeptides as Broad-Spectrum Intracellular Targeting Antibacterial Agents” (J Med Chem, 2022).

Each structure is given as a SMILES string. In brackets after ≈: the same amount, converted by molar mass. Activity calls are given as the source filed them. No cut-off for these calls is given here. Where a SMILES comes first, the peptide text is derived from it. The star is where a group is joined. Lauroyl = CCCCCCCCCCCC(=O)*; Decanoyl = CCCCCCCCCC(=O)*; Spermine = NCCCNCCCCNCCCN*

The target of data set [1] is Bacterial 70S ribosome. The data set is described as follows: Binding affinity to Escherichia coli MRE600 70S ribosome assessed as inhibition constant preincubated for 90 mins followed by incubation with Rho-C12-PR-Spn for 90 mins by competitive fluorescence binding assay. Format: subcellular.
Data set [2] concerns Cell membrane. The data set is described as follows: Disruption of bacterial cell membrane in Escherichia coli ATCC 25922 assessed as proportion of bacteria with intact cell membrane at 1X MIC incubated for 1 hr by PI staining based flow cytometric analysis (reference value: 99.3%). Format: subcellular. On the technique in general: A flow cytometer gives signals particle by particle.

Data set [3] has as its system Staphylococcus aureus. The data set is described as follows: Synergistic antibacterial activity against MDR-methicillin-resistant Staphylococcus aureus ATCC BAA-44 assessed as fold change in ampicillin MIC by checkerboard assay. Format: functional.
Data set [4] deals with Staphylococcus aureus. Description: Additive antibacterial activity against MDR-methicillin-resistant Staphylococcus aureus ATCC BAA-44 assessed as fold change in chloramphenicol MIC by checkerboard assay. Format: functional.
In data set [5] the test system is Staphylococcus aureus. Description: Additive antibacterial activity against MDR-methicillin-resistant Staphylococcus aureus ATCC BAA-44 assessed as fractional inhibitory concentration index in presence of tetracycline by checkerboard assay. The data set is classed as functional.
Data set [6] is described as follows: Acute toxicity in BALB/c mouse assessed as effect on locomotor activity at 10 mg/kg, ip measured for 7 days. To be noted: in vivo, 168 h, time 7 day. Format: organism-based.
For data set [7], the system named is Staphylococcus aureus. The data set is described as follows: Additive antibacterial activity against MDR-methicillin-resistant Staphylococcus aureus ATCC BAA-44 assessed as fractional inhibitory concentration index in presence of rifampicin by checkerboard assay. Format: functional.
Data set [8] relates to Erythrocyte. The data set is described as follows: Hemolytic activity against human RBC assessed as hemolysis upto 100 uM incubated for 1 hr by ELISA plate reader analysis. The data set is classed as toxicity, cell-based.
Data set [9] concerns Staphylococcus aureus. The data set is described as follows: Additive antibacterial activity against MDR-methicillin-resistant Staphylococcus aureus ATCC BAA-44 assessed as fractional inhibitory concentration index in presence of chloramphenicol by checkerboard assay. Format: functional.
Data set [10] is described as follows: Cytotoxicity against human THP-1 cells assessed as cell viability at 100 uM by MTT assay. To be noted: read-out: Activity. The data set is classed as toxicity, cell-based. Background: Formazan colour is commonly taken as a measure of viable cells.
Data set [11] concerns Staphylococcus aureus. The data set is described as follows: Antibacterial activity against Staphylococcus aureus ATCC 25923 assessed as reduction in bacterial growth measured after 18 hrs by broth microdilution method. Format: functional. A general note: In broth dilution the organism is exposed to a series of concentrations in liquid medium.
In data set [12] the test system is Staphylococcus aureus. Description: Additive antibacterial activity against MDR-methicillin-resistant Staphylococcus aureus ATCC BAA-44 assessed as chloramphenicol MIC by checkerboard assay. The data set is classed as functional.
Data set [13] concerns Staphylococcus epidermidis. The data set is described as follows: Antibacterial activity against methicillin-resistant Staphylococcus epidermidis ATCC 51625 assessed as reduction in bacterial growth measured after 18 hrs by broth microdilution method. Format: functional.
Data set [14] concerns Staphylococcus aureus. The data set is described as follows: Additive antibacterial activity against MDR-methicillin-resistant Staphylococcus aureus ATCC BAA-44 assessed as fractional inhibitory concentration index in presence of gentamicin by checkerboard assay. Format: functional.
Data set [15] concerns Staphylococcus aureus. Description: Synergistic antibacterial activity against MDR-methicillin-resistant Staphylococcus aureus ATCC BAA-44 assessed as chloramphenicol MIC by checkerboard assay. Format: functional.
In data set [16] the test system is Staphylococcus aureus. Description: Additive antibacterial activity against MDR-methicillin-resistant Staphylococcus aureus ATCC BAA-44 assessed as fold change in rifampicin MIC by checkerboard assay. Format: functional.
Data set [17] is described as follows: Acute toxicity in BALB/c mouse assessed as mouse survival at 10 mg/kg, ip measured for 7 days. To be noted: in vivo, time 7 day. Format: organism-based.
Data set [18] concerns Cell membrane. The data set is described as follows: Disruption of bacterial cell membrane in Escherichia coli ATCC 25922 assessed as blebbing on the surface of the bacteria at 5XMIC by SEM analysis. Format: subcellular.

The term Ki denotes the equilibrium dissociation constant of an inhibitor or competing ligand from its target. For orientation: MIC means the lowest concentration found to suppress growth. Regarding `CCCCCCCCCC(=O)N1CCC[C@H]1C(=O)N[C@@H](CCCNC(=N)N)C(=O)N1CCC[C@H]1C(=O)N[C@@H](CCCNC(=N)N)C(=O)N1CCC[C@H]1C(=O)N1CCC[C@H]1C(=O)N[C@@H](CCCNC(=N)N)C(=O)NCCCNCCCCNCCCN` (Decanoyl-PRPRPPR-Spermine), the Ki in data set [1] came out at 33.8 nM. Moreover, the values for the Activity in data set [2], in data set [6] and in data set [8] were 93.9%, “Non-Toxic” and “Non-Toxic”, respectively. The “fold change (FC)” value in [3] is listed as 2; in [4] it was 1; in data set [16], 2. Besides, the “fractional inhibitory concentration index (FICI)” value came out at 0.625 in data set [5], 0.625 in [7], 2 in data set [9] and 0.745 in [14]. In addition, the viability at 100 µM in data set [10] amounted to 80%. Further, the MIC was 3.1 µM (≈ 3.76 µg/mL) in data set [11], 1000 µg/mL in data set [12], 3.1 µM (≈ 3.76 µg/mL) in [13] and 1000 µg/mL in data set [15]. In [17], the survival at 168 h amounted to 100%.

Consider `CCCCCCCCCCCC(=O)N1CCC[C@H]1C(=O)N[C@@H](CCCNC(=N)N)C(=O)N1CCC[C@H]1C(=O)N[C@@H](CCCNC(=N)N)C(=O)N1CCC[C@H]1C(=O)N1CCC[C@H]1C(=O)N[C@@H](CCCNC(=N)N)C(=O)NCCCNCCCCNCCCN` (Lauroyl-PRPRPPR-Spermine), for which the outcome in data set [18] was Active. Further, the Ki in data set [1] was determined as 21.7 nM. The Activity is 92.9% in data set [2], “Non-Toxic” in [6] and “Non-Toxic” in data set [8]. For the same compound, the “fold change (FC)” value in [3] is listed as 4; in data set [16], 2. Also, the “fractional inhibitory concentration index (FICI)” value in [5] was found to be 0.625; in [7] it was 1; in data set [14] it was 0.745. The viability at 100 µM in data set [10] was 65%. The values for the MIC in [11], in data set [13] and in data set [15] were 1.5 µM (≈ 1.86 µg/mL), 1.5 µM (≈ 1.86 µg/mL) and 250 µg/mL, respectively. Besides, the survival at 168 h in data set [17] turned out to be 100%.
